The text below walks through data of patent publication US7989466B2, “Methods to inhibit or augment an inflammatory response” (Cambridge Enterprise Limited, priority 1999, dated 2011).

Like-named read-outs stand apart in the source and are kept apart here.

For assay [1], the system named is MCP-1 induced THP-1 migration. Nature of the assay: THP-1 trans-well migration assay, MCP-1 as chemoattractant. The class given is cell-based, human. The conditions noted are these: agent with the cells in the upper compartment, n.s. = no statistically significant inhibition (p > 0.05), read-out: ED50 versus MCP-1, inhibition of THP-1 migration. On the procedure:
(§1) To determine whether an agent inhibits a chemokine-induced activity, such as macrophage recruitment, varying amounts of the agent are mixed with cells in the presence of a known chemoattractant. For example, a range of known concentrations of an agent, e.g., a chemokine peptide, is incubated with a defined number (e.g., 10^4-10^6) of human THP-1 monocyte cells in individual wells of the top compartment of a trans-well plate. Chemokine (such as MCP-1, MIP1α, IL8 or SDF-1α), at a concentration known to cause significant migration of THP-1 cells in the trans-well migration assay, is placed in the lower compartment (FIG. 1). Cells are then incubated at 37° C. for a period sufficient to allow migration, e.g., 4 hours. After incubation, the cells are gently removed from the top of the filter with a pipette, 20 μl of 20 mM EDTA in simple PBS is added into each top well, and incubated for 20 minutes at 4° C. The filter is carefully flushed with media using a gentle flow, and removed. A standard curve consisting of a two-fold dilution series of THP-1 cells (in 29 μl) is prepared to accurately quantify the number of cells that have migrated. Migrated cells are stained with 3 μl of MTT stock dye solution which is added directly into each well (5 mg/ml in RPMI-1640 without phenol red, Sigma Chemical Co.) and incubated at 37° C. for 4 hours. The media is carefully aspirated from each well, and the converted dye is solubilized by 20 μl of DMSO. Absorbance of converted dye is measured at a wavelength of 595 nm using an ELISA plate reader. The number of migrated cells in each well is then determined by interpolation of the standard curve (see also Imai et al., J. Biol. Chem., 272, 15036 (1997)).
(§2) For this assay, THP-1 cells were maintained at a density of 4×10^5 cells per ml in RPMI-1640 supplemented with 10% fetal calf serum+20 μM 2-mercaptoethanol. Chemotaxis was induced in a 96-well disposable chemotaxis chamber fitted with a […] polycarbonate filter (PVP free, ChemoTX, Neuroprobe Inc., Cabin John). Twenty-nine μl of chemoattractant (recombinant human chemokine; 50 ng/ml, i.e., 5.9 nM) or control (100 ng/ml TGFβ) was added to the lower compartment of each well. The framed filter was aligned with the holes in the corner of the filter frame and placed over the wells. Five×10^4 THP-1 cells in 25 μl of RPMI-1640 were added to the upper compartment. Peptides were dissolved in Milli Q water and then serially diluted in culture medium. In most cases, the serially diluted peptides were added to the upper compartment of the chemotaxis chamber. The chamber was incubated at 37° C. in a humidified atmosphere of 5% CO2 for 4 hours.
(§3) After incubation, the cells were gently removed from the top of the filter with a pipette, 20 μl of 20 mM EDTA in PBS was added into each top well, and the mixture was incubated for 20 minutes at 4° C. The filter was then carefully flushed with media using a gentle flow, and removed. A standard curve was prepared to accurately quantify the number of THP-1 cells that had migrated. The curve was based on a two-fold dilution series of THP-1 cells (top standard 100,000 cells in 29 μl). Cells which had migrated, and in separate wells, the cells in the standards, were stained with 3 μl of MTT stock solution which was added directly into each well (5 mg/ml in RPMI 1640 without phenol red, Sigma Chemical Co.) and incubated at 37° C. for 4 hours. The media was carefully aspirated from each well, and the converted dye was solubilized by 20 μl of DMSO. Absorbance of converted dye was measured at a wavelength of 595 nm using an ELISA plate reader. The number of cells that had migrated in each well was determined by interpolation of the standard curve.

For assay [2], the system named is MIP1α induced THP-1 migration. Nature of the assay: THP-1 trans-well migration assay, MIP1α as chemoattractant. In kind it is cell-based, human. The conditions noted are these: n.s. = no statistically significant inhibition (p > 0.05); read-out: ED50 versus MIP1α, inhibition of THP-1 migration. On the procedure: as §1, §2, §3
Assay [3] relates to IL8 induced THP-1 migration. Description: THP-1 trans-well migration assay, IL-8 as chemoattractant. The class given is cell-based, human. Particulars: n.s. = no statistically significant inhibition (p > 0.05); read-out: ED50 versus IL8, inhibition of THP-1 migration. On the procedure:
as §1, §2, §3

In assay [4] the test system is SDF-1α induced THP-1 migration. Description: THP-1 trans-well migration assay, SDF-1α as chemoattractant. In kind it is cell-based, human. On the procedure: as §1, §2, §3
The subject of assay [5] is TGFβ1 induced THP-1 migration. Description: THP-1 trans-well migration assay, TGFβ1 as non-chemokine control. The class given is cell-based, human. Particulars: n.s. = no statistically significant inhibition (p > 0.05). The procedure:
Any method suitable for counting cells can be used, for example, counting with a hemocytometer, incubation of the cells with MTT (see above), or FACS analysis. A negative control assay is also performed, using TGF-β or another non-chemokine chemoattractant (e.g., IL1β or TNFα). To assess whether the agent is cytotoxic, the same concentrations of agent are incubated with THP-1 cells. Agents which 1) are not cytotoxic at levels which inhibit migration, 2) are ineffective at inhibiting the negative control-induced migration, and 3) reduce or inhibit chemokine-induced THP-1 migration, are agents which fall within the scope of the invention.
Chemotaxis was induced in a 96-well disposable chemotaxis chamber fitted with a […] polycarbonate filter (PVP free, ChemoTX, Neuroprobe Inc., Cabin John). […] The framed filter was aligned with the holes in the corner of the filter frame and placed over the wells. […] Peptides were dissolved in Milli Q water and then serially diluted in culture medium. In most cases, the serially diluted peptides were added to the upper compartment of the chemotaxis chamber. The chamber was incubated at 37° C. in a humidified atmosphere of 5% CO2 for 4 hours.
After incubation, the cells were gently removed from the top of the filter with a pipette, 20 μl of 20 mM EDTA in PBS was added into each top well, and the mixture was incubated for 20 minutes at 4° C. The filter was then carefully flushed with media using a gentle flow, and removed. […] The curve was based on a two-fold dilution series of THP-1 cells (top standard 100,000 cells in 29 μl). […] The media was carefully aspirated from each well, and the converted dye was solubilized by 20 μl of DMSO.

Assay [6] deals with chemokine-induced THP-1 migration. Nature of the assay: THP-1 trans-well migration assay, panel of chemokines (MCP-1, MIP1α, IL-8, SDF1α). The class given is cell-based, human. Particulars: for CC SPECIFICITY: average inhibitory ED50 versus SDF1 and IL8 divided by average inhibitory ED50 versus MCP-1 and MIP1α; for Chemokine antagonist: active against at least one of IL-8, SDF-1α, MCP-1, MIP1α.

In assay [7] the target is T1, Duffy Antigen Receptor for Chemokines (DARC) (Homo sapiens, UniProt Q16570).
T1 sequence (Q16570 1-336): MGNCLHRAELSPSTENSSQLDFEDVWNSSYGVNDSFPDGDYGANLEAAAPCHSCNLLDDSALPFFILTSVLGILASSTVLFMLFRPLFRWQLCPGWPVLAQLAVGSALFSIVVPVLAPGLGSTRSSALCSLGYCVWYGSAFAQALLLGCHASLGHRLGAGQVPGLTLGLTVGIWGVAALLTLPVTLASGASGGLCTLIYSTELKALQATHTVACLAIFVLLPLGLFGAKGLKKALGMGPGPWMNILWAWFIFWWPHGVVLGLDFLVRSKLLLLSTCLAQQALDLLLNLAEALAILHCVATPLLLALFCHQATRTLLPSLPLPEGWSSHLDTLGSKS
Nature of the assay: DARC binding: competition with 125I-MCP-1 on red blood cells.

Assay [8] has as its target T2, Recombinant human latent TGF-β1 (Homo sapiens, UniProt P01137).
T2 construct: purchased R&D Systems; host or cells: CHO cells
Nature of the assay: Latent TGF-β1 activation ELISA (R2X capture). The class given is biochemical. Details: key: −: A minus indicates no detectable activity in the assay; +: The number of pluses is a qualitative indicating of the activity of each peptide in each assay; ++: The number of pluses is a qualitative indicating of the activity of each peptide in each assay; +++: The number of pluses is a qualitative indicating of the activity of each peptide in each assay; ++++: The number of pluses is a qualitative indicating of the activity of each peptide in each assay; +++++: The number of pluses is a qualitative indicating of the activity of each peptide in each assay. Particulars: test peptide at 100 nM, 37° C., 90 minutes. On the procedure:
To test whether a KXK tripeptide activates TGF-beta, a direct ELISA-type assay can be used. Recombinant human latent TGF-β1 produced in CHO cells (R&D Systems) was incubated with the test activator. For example, 200 ng of latent TGF-β1 (at 20 μg/ml) was incubated with test peptide at 100 nM final concentration at 37° C. for 90 minutes. Following incubation, the TGF-β is incubated with the recombinant extracellular domain of the Type II TGF-β receptor (R2X) which binds only the active and not the latent forms of TGF-β1 (Clin. Chim. Acta, 235, 11 (1995)). For example, 1 μg of purified R2X is coated onto a Maxisorp ELISA plate well in 50 μl of 100 mM sodium carbonate for 2 hours at 4° C., and non-specific protein binding then blocked incubation with 5% sucrose 5% Tween-20 in Tris-buffered saline for 1 hour at room temperature.
The TGF-β sample is then incubated with the coated and blocked wells for 2 hours at room temperature with shaking. Wells are washed 3 times quickly with Tris-buffered saline containing 0.05% Tween-20 between each incubation. If any of the latent TGF-β1 has been activated by the incubation with test peptide, it is captured by the R2X, while remaining latent TGF-β1 is washed away. Captured active TGF-β1 is then detected by incubation with a suitable detection agent, such as a peroxidase conjugated polyclonal anti-TGF-beta antibody. For example, the wells are incubated with 200 μl of BDA19 chicken anti-TGF-β1 antibody coupled to horseradish peroxidase for 90 minutes at room temperature with shaking. Any bound peroxidase is then detected using a suitable chromogenic substrate (e.g., K-BLUE TMB substrate solution). The amount of active TGF-β generated is estimated by interpolation of a standard curve constructed using known amounts of active TGF-β1 (R&D Systems).

T2 sequence (P01137 30-278 limits assumed): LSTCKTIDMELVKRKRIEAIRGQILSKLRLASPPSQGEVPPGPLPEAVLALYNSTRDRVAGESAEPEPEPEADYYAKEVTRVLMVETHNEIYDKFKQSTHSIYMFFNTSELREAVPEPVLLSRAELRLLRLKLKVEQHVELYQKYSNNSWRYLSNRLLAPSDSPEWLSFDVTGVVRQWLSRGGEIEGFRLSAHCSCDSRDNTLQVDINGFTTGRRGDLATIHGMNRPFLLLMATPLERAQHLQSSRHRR

In the case of EICLDPKQKWIQ [Leu4Ile11peptide 3], the EC50 in assay [1] (listed as Leu4Ile11peptide 3(1-12)[MCP-1]) is around 1000 nM; in assay [1], 2000 nM; in assay [2], 1000 nM; in assay [3], 3000 nM; in assay [4] (n.s. = no statistically significant inhibition (p > 0.05), read-out: ED50 versus SDF-1α, inhibition of THP-1 migration), 3000 nM; in assay [6] (average inhibitory ED50 for inhibition of THP-1 migration induced by each of the chemokines, listed as Leu4Ile11peptide 3(1-12)[MCP-1], read-out: AVERAGE ED50) it was 2300 nM. In addition, the “ED50 versus TGFβ1, inhibition of THP-1 migration” value in assay [5] is listed as “n.s”. Moreover, the “more potent as an inhibitor of CC chemokines than peptide 3(1-12)[MCP-1]” value in assay [6] is reported as “approximately 5 fold”. Also, the “CC SPECIFICITY” value in assay [6] stood at 2.0. Also, the “selectivity for receptors on THP-1 cells over DARC” value in assay [7] is on record as “at least 20 fold”.

With KDK, the Chemokine antagonist result in assay [6] is given as “+”. In addition, the “TGF-beta Activator” value in assay [8] is on record as “−”.

KEK: the Chemokine antagonist entry in assay [6] was “+”. The “TGF-beta Activator” value in assay [8] is on record as “−”.

As for KFK, the Chemokine antagonist result in assay [6] is recorded as “−”. The “TGF-beta Activator” value in assay [8] is on record as “++++”.

On to KGK, for which the Chemokine antagonist result in assay [6] is reported as “−”. For the same substance, in assay [8], the “TGF-beta Activator” value is on record as “−”.

Consider KIK, for which the Chemokine antagonist result in assay [6] is “++”. In assay [8], the “TGF-beta Activator” value was “++”.

As to KKK, the Chemokine antagonist result in assay [6] is “++++”. The “TGF-beta Activator” value in assay [8] is on record as “−”.

With KLK, in assay [4] (tripeptide at 100 μM, mean ± range, dash = no statistically significant reduction in migration), the “percentage inhibition of migration induced by SDF1α” value is reported as 87 ± 6%. Besides, in assay [6], the Chemokine antagonist result was “++++” and the “CC SPECIFICITY” value is recorded as below 0.1. Besides, the EC50 in assay [6] (footnote f, KQK MCP-1, SEE MIP1α, KLK SDF1, KEN IL8, read-out: ED50 of a tripeptide against the one chemokine it is highly specific for) is 100 to 10000 nM. In addition, the “TGF-beta Activator” value in assay [8] was “+++”.

Turning to KSK, the Chemokine antagonist entry in assay [6] is given as “−”. Further, in assay [8], the “TGF-beta Activator” value is on record as “−”.

For the substance KTK, in assay [6], the Chemokine antagonist entry was “−”. In assay [8], the “TGF-beta Activator” value is given as “−”.

For the substance KWK, in assay [6], the Chemokine antagonist result is reported as “−”. Besides, the “TGF-beta Activator” value in assay [8] is “−”.

As to KYK, the Chemokine antagonist result in assay [6] is given as “−”. The “TGF-beta Activator” value in assay [8] is “+++++”.
